The text below walks through data of patent US7671242B2 (priority 2005, dated 2010).

Values after ≈ are worked out from the molar mass of the structure shown. Where two headings read alike, the source gives them in different places.

The conditions of data set [1]: cited from earlier work.
Data set [2] is classed as physicochemical. Conditions: lipoxidase treatment at 37° C., hexane:ethyl ether extraction, HPLC.
The conditions of data set [3]: cited from earlier work. This is another data set of the same source.
The conditions of data set [4]: cited from earlier work. This is another data set of the same source.

Usually Solubility stands for the concentration that dissolves in the medium under given conditions. On to `CC1=C[C@H](O)CC(C)(C)[C@H]1/C=C/C(C)=C/C=C/C(C)=C/C=C/C=C(C)/C=C/C=C(C)/C=C/C1=C(C)C[C@@H](O)CC1(C)C` [Lutein, 3,3′-dihydroxy-alpha-carotene], for which the Solubility is 800 µg/mL (≈ 1410 µM) in data set [1] (Ethyl acetate) and 2000 µg/mL (≈ 3520 µM) in data set [1] (Methyl tert butyl ether). The “Solubility in nonpolar and polar solvents” value in data set [1] (nonpolar and polar solvents) was “soluble in both nonpolar and polar solvents”. Further, in data set [1] (water), the Solubility in water result was “Insoluble”. For the same compound, in data set [2], the “initial lutein recovered after enzyme treatment” value is recorded as “Approximately 88%”. In addition, the Stability result in data set [3] (light and oxygen) is “Unstable to light and oxygen;”; in data set [3] (stored at −20° C. under a nitrogen atmosphere), “Stable if stored at −20 °C under a nitrogen”.

Regarding aflatoxin B1 [AFB1], in data set [4], the “Lipid and water solubility” value was “both lipid and water soluble”.
